This is an account of results in ChEMBL document CHEMBL1201862, “PubChem BioAssay data set” (2004).

Experiment in all cases: DTP human tumour cell line panel, 48 h
Experiment [1] has as its system 786-0.
Experiment [2] concerns HCC 2998.
Experiment [3] concerns HCT-15.
In experiment [4] the test system is HOP-62.
The subject of experiment [5] is MOLT-4.
Experiment [6] relates to NCI-H226.
For experiment [7], the system named is OVCAR-4.
Experiment [8] concerns OVCAR-5.
Experiment [9] relates to SF-295.
Experiment [10] has as its system SN12C.
The test system of experiment [11] is U-251.
Experiment [12] deals with UO-31.
The subject of experiment [13] is HOP-92.
The subject of experiment [14] is UACC-257.
Experiment [15] relates to SK-OV-3.

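Each compound was tested at five concentrations against cells in 96-well plates for 48 hours. Here, GI50 denotes the concentration required for 50% inhibition of growth.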 Activity calls are given as the source filed them. Rule as the data show it: active = GI50 up to about 1.1 µM and inactive = higher.

As usually defined, the GI50 is the concentration at which growth is held to half of that of the control. As for `COc1nc2c(c(O)c(C)c(=O)n2OC2OC(COC(C)=O)C(OC(C)=O)C(OC(C)=O)C2OC(C)=O)c(=O)n1C` (stereo unspecified), the GI50 in [1] is > 100 µM (inactive); in experiment [2] it was > 100 µM (inactive); in [3] it was more than 100 µM; in experiment [4], > 100 µM (inactive); in [5], > 100 µM (inactive); in [6], > 100 µM (inactive). For the same molecule, the GI50 in experiment [7], in [8], in experiment [9], in experiment [10], in experiment [11] and in experiment [12] was > 100 µM (inactive) throughout.

With `CCOC1=C2N=C(C(CC)c3ccccc3F)N=C2C(=O)c2ccccc21` (stereo unspecified), the GI50 in experiment [1] is > 100 µM (inactive); in [2] it was > 100 µM (inactive); in experiment [3] it was more than 100 µM; in experiment [4] it was > 100 µM (inactive); in experiment [13], 95.7 µM (inactive); in experiment [5] it was 24 µM (inactive). Also, the GI50 in experiment [6] is > 100 µM (inactive); in experiment [7] it was > 100 µM (inactive); in [9], > 100 µM (inactive); in [10], > 100 µM (inactive); in [11], 8.45 µM (inactive); in experiment [14] it was > 100 µM (inactive). Besides, in [12], the GI50 is > 100 µM (inactive).

Regarding `N#CCCn1[nH]c(=O)c(Cl)c(Cl)c1=O`, the GI50 in [1] is 18.7 µM (inactive); in [2], 13.1 µM (inactive); in experiment [3], 10.4 µM; in experiment [4], > 10 µM (inactive); in [13], 6.21 µM (inactive); in [5], 15.9 µM (inactive). For the same molecule, the GI50 in experiment [6] was 23 µM (inactive); in experiment [7], 18 µM (inactive); in experiment [8], 18.8 µM (inactive); in experiment [9], 18.1 µM (inactive); in [10], 17.4 µM (inactive); in experiment [11], 16.6 µM (inactive). The GI50 in experiment [14] and in [12] was 18.9 µM (inactive) in each case.

On to `COc1ccc(/C=C2\CCC(C)(CN(C)C)C2=O)cc1` (stereo unspecified), for which the GI50 is > 100 µM (inactive) in experiment [1]; > 100 µM (inactive) in experiment [2]; 60.8 µM in experiment [3]; > 100 µM (inactive) in experiment [4]; > 100 µM (inactive) in [13]; > 100 µM (inactive) in experiment [5]. In addition, the GI50 in [6] was > 100 µM (inactive); in experiment [7], > 100 µM (inactive); in experiment [8], > 100 µM (inactive); in [9], > 100 µM (inactive); in experiment [10] it was > 100 µM (inactive); in experiment [11], 76.4 µM (inactive). For the same molecule, the GI50 in experiment [14] and in experiment [12] was > 100 µM (inactive) each time.

Take `Cc1cc2c(C)nn(Cc3ccccc3Cl)c2c(C#N)c1C`: the GI50 was > 100 µM (inactive) in [1]; > 100 µM (inactive) in [2]; more than 100 µM in [3]; > 100 µM (inactive) in [4]; > 100 µM (inactive) in [13]; > 100 µM (inactive) in [5]. The GI50 in [6], in experiment [8], in experiment [9], in experiment [15], in experiment [10] and in experiment [11] was > 100 µM (inactive) each time. Further, the GI50 in experiment [14] and in [12] was > 100 µM (inactive) each time.

Consider `O=C(O)/C(Cl)=C(Cl)/C=N/NC(=O)c1cc2ccccc2cc1O`, for which the GI50 was 19.1 µM (inactive) in experiment [1]; 19.4 µM in experiment [3]; 36.6 µM (inactive) in [4]; 30.3 µM (inactive) in experiment [13]; 5.89 µM (inactive) in [5]; 18.6 µM (inactive) in experiment [6]. The GI50 is 5.66 µM (inactive) in experiment [7]; 19.3 µM (inactive) in experiment [8]; 11.9 µM (inactive) in experiment [9]; 49.2 µM (inactive) in experiment [15]; 38.5 µM (inactive) in experiment [10]; 27.5 µM (inactive) in experiment [11]. The GI50 in [14] was 15.5 µM (inactive); in [12], 2.48 µM (inactive).

As for `COc1cc2c(c(OC)c1OC)-c1ccc(SC)c(=O)cc1[C@@H](NCc1ccc([N+](=O)[O-])cc1)CC2`, the concentration for 50% growth inhibition (GI50) in [1] is 0.00624 µM (active); in experiment [2], 0.00299 µM (active); in experiment [3], 0.00487 µM; in [4], 0.00741 µM (active); in experiment [13], 0.0472 µM (active); in experiment [5], 0.00478 µM (active). The GI50 is 0.00284 µM (active) in experiment [6]; 0.0074 µM (active) in experiment [8]; 0.00364 µM (active) in experiment [9]; 0.00315 µM (active) in experiment [15]; 0.00738 µM (active) in [10]; 0.00416 µM (active) in experiment [11]. Moreover, the GI50 in [14] is 0.00516 µM (active); in experiment [12] it was 0.406 µM (active).

Consider `C=CCNC(=S)NNC(=O)c1c(C)nc2sccn12`, for which the GI50 in [1] was > 100 µM (inactive); in [2] it was > 100 µM (inactive); in experiment [3], more than 100 µM; in [4] it was > 100 µM (inactive); in [13] it was 70 µM (inactive); in experiment [5] it was > 100 µM (inactive). Besides, the GI50 in experiment [6], in [8], in [9], in experiment [15], in experiment [10] and in experiment [11] was > 100 µM (inactive) in each case. Further, the GI50 in experiment [14] is > 100 µM (inactive).

With `CC(=O)OC1CC2(C)OC(Cc3ccccc32)O1` (stereo unspecified), the GI50 in experiment [1] was > 100 µM (inactive); in [2], > 100 µM (inactive); in experiment [4], > 100 µM (inactive); in experiment [13], 53.6 µM (inactive); in [5], > 100 µM (inactive); in [6], > 100 µM (inactive). The GI50 in [9], in experiment [15], in experiment [10], in experiment [11], in experiment [14] and in experiment [12] was > 100 µM (inactive) each time.

With `O=C(c1ccccc1)c1c(CNCc2ccccc2)n(C(=O)c2ccccc2)c2ccccc12`, the GI50 was > 100 µM (inactive) in experiment [1]; 86.9 µM (inactive) in experiment [2]; 28.8 µM in experiment [3]; 80.5 µM (inactive) in [4]; 13.7 µM (inactive) in [13]; 7.43 µM (inactive) in [5]. For the same molecule, the GI50 is 29.6 µM (inactive) in experiment [6]; 9.95 µM (inactive) in experiment [7]; > 100 µM (inactive) in experiment [8]; 9.51 µM (inactive) in experiment [9]; 20.8 µM (inactive) in experiment [11]; 29.6 µM (inactive) in [14]. Besides, the GI50 in experiment [12] is 8.95 µM (inactive).

On to `COc1cc(/C=N/N=C(\N)NO)ccc1O`, for which the GI50 was > 10 µM (inactive) in experiment [1]; 50 µM in [3]; > 100 µM (inactive) in experiment [13]; 65.9 µM (inactive) in [5]; 14.1 µM (inactive) in experiment [6]; > 100 µM (inactive) in [7]. The GI50 in experiment [8] is 18.1 µM (inactive); in experiment [9], 26.1 µM (inactive); in experiment [15], 78.7 µM (inactive); in [10], > 100 µM (inactive); in [11] it was 91.2 µM (inactive); in experiment [14] it was > 100 µM (inactive). The GI50 in experiment [12] is 41.4 µM (inactive).
